Laboratory results published in PMC6466937, “Evaluation of In Vitro Antioxidant and Antidiabetic Activities of Aristolochia longa Extracts” (Evidence-based Complementary and Alternative Medicine : eCAM, 2019).

Target: T1, β-Galactosidase from Aspergillus oryzae (Aspergillus oryzae, UniProt Q2UCU3)
T1 construct: gene lacA; commercial secreted enzyme (Sigma-Aldrich), no catalogue number
T1 sequence (Q2UCU3 19-1005): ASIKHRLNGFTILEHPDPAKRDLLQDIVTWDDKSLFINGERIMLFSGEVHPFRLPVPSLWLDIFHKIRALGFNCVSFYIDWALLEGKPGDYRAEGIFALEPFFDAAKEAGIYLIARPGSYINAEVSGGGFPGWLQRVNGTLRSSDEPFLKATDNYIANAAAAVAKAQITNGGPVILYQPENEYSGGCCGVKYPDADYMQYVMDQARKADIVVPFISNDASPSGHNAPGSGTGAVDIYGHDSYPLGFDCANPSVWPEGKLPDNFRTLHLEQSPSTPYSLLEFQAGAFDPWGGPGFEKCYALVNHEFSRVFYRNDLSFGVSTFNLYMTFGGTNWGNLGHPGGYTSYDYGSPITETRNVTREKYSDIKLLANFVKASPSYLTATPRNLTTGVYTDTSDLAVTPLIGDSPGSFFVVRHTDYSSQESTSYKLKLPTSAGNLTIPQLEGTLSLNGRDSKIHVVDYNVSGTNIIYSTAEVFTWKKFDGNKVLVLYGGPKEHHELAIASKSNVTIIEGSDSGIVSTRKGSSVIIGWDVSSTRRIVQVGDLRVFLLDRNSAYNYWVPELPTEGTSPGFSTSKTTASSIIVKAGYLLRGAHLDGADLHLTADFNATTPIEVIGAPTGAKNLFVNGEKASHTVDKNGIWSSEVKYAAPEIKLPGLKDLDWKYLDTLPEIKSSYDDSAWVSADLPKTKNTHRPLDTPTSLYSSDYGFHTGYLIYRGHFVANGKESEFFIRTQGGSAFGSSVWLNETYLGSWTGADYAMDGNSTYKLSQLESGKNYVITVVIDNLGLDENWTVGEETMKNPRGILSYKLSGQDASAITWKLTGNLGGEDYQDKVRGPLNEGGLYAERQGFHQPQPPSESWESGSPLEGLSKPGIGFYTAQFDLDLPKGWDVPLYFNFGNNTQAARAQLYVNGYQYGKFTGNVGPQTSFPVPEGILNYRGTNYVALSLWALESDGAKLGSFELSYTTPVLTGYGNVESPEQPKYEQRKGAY
Assay: 2-nitrophenyl beta-D-galactopyranoside hydrolysis, absorbance […] nm
Format: biochemical
Details: read-out: β-Galactosidase inhibition / IC50 (mg/mL) (converted)

Work on `O=c1c(O)c(-c2ccc(O)c(O)c2)oc2cc(O)cc(O)c12` [Quercetin] yielded an IC50 of 817 µM.
